A value given as a limit tells only on which side of the number the result lay.

The nature of assay [1]: Tested for its activity to inhibit the binding of [125I]gastrin to gastric glands (gastrin) in guinea pig.
Assay [2] in a line: Tested for its activity to inhibit the binding of [125I]CCK-33 to Cholecystokinin type B receptor in guinea pig brain.
Assay [3] in a line: Tested for its activity to inhibit the binding of [125I]gastrin to gastric glands (gastrin) in guinea pig. The source holds these as a separate data set.

For orientation: IC50 means the concentration needed to halve the response being measured. A high value points to weaker potency. Take `Cn1c(C(=O)Nc2cc3c4ccccc4nc-3c[nH]2)cc2ccccc21` [1-Methyl-1H-indole-2-carboxylic acid (9H-beta-carbolin-3-yl)-amide]: the IC50 in assay [1] and in assay [2] was > 100 µM in each case.
Take `O=C(Cc1ccccc1)Nc1cc2c3ccccc3nc-2c[nH]1` [N-(9H-beta-Carbolin-3-yl)-2-phenyl-acetamide]: the results for the IC50 in assay [3] and in assay [2] were 14 µM and 34 µM, respectively.
For `O=C(Nc1cc2c3ccccc3nc-2c[nH]1)c1ccccc1` [N-(9H-beta-Carbolin-3-yl)-benzamide], the IC50 in assay [3] is > 100 µM; in assay [2], 223 µM.

The values are drawn from BindingDB's records for doi:10.1016/S0960-894X(00)80682-4 (1993).
